One experiment addresses NAMPT (Homo sapiens, UniProt P43490). The experiment in a line: Time-Resolved Fluorescence Resonance Energy Transfer (TR-FRET) Binding Assay of NAMPT with PRPP. The note with it: 2 nM NAMPT, 2 nM probe, 200 uM PRPP and 2.5 mM ATP, equilibrated 16 hours. As for the experimental part:
Time-Resolved Fluorescence Resonance Energy Transfer (TR-FRET) Binding Assay of NAMPT with PRPP
Compound handling and data processing were identical to the assay in the absence of substrates (above). Final concentrations were 1× assay buffer, 2% DMSO, 2 nM NAMPT, 2 nM probe, 1 nM Tb-anti-His antibody (Invitrogen #PV5895), 200 uM PRPP and 2.5 mM ATP. Reactions were equilibrated for 16 hours prior to measurement to allow for potential enzymatic modification of test compounds.
In general terms: Time-resolved FRET reads energy transfer from a long-lived donor to a nearby acceptor.

The target in experiment [1] is NAMPT (human, recombinant, C-terminally His-tagged) (Homo sapiens, UniProt P43490). The experiment in a line: Time-Resolved Fluorescence Resonance Energy Transfer (TR-FRET) Binding Assay of NAMPT. The following applies: 6.8 nM NAMPT, 200 nM probe, equilibrated 3 hours, absence of substrates. As for the experimental part:
Determination of the utility of compounds having Formula (I) as binders to and inhibitors of NAMPT was performed using Time-Resolved Fluorescence Resonance Energy Transfer (TR-FRET) binding assays.
Time-Resolved Fluorescence Resonance Energy Transfer (TR-FRET) Binding Assay of NAMPT
Test compounds were serially diluted (typically 11 half log dilutions) in neat DMSO to 50× final concentrations prior to dilution with assay buffer (50 mM HEPES (NaOH), pH 7.5, 100 mM NaCl, 10 mM MgCl2, 1 mM DTT, 1% Glycerol) to 3× and 6% DMSO. Six μL were transferred to 384-well low-volume plates (Owens Corning #3673). To this, 12 μL of a 1.5× solution containing enzyme, probe and antibody were added. Final concentrations in the 18 μL, reactions were 1× assay buffer, 2% DMSO, 6.8 nM NAMPT (human, recombinant, C-terminally His-tagged), 200 nM probe (a potent nicotinamide-competitive inhibitor conjugated to Oregon Green 488) and 1 nM Tb-anti-His antibody (Invitrogen #PV5895). Reactions were equilibrated at room temperature for 3 hours prior to reading on an Envision multi-label plate reader (Perkin Elmer; Ex=337 nm, Em=520 and 495 nm). Time-resolved FRET ratios (Em520/Em495) were normalized to controls, plotted as a function of compound concentration and fit with the four-parameter logistic equation to determine IC50s.

pIC50: −log10 of the molar value.

Sequence of NAMPT (human, recombinant, C-terminally His-tagged) (P43490 whole entry): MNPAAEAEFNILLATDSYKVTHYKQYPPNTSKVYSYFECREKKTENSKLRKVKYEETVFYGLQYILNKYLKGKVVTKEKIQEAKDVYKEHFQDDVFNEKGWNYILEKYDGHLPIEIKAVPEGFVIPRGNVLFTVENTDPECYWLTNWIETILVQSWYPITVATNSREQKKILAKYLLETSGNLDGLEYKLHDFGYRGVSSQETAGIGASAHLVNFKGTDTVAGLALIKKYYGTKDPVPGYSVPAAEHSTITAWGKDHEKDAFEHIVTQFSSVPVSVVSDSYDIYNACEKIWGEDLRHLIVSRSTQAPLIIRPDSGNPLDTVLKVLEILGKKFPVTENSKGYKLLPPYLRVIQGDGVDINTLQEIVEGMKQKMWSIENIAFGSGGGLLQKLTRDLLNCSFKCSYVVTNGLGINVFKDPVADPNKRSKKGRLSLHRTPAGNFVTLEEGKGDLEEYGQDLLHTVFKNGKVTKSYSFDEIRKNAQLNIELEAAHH
Sequence of NAMPT (P43490 whole entry): as above

Usually pIC50 stands for −log10 of the IC50, conventionally taken in molar units. For `O=C(Nc1ccc(OC2CCN(C(=O)CC3CCOCC3)CC2)cc1)C1CN(c2cccnc2)C1` [Example 1, 1-(pyridin-3-yl)-N-(4-{[1-(tetrahydro-2H-pyran-4-ylacetyl)piperidin-4-yl]oxy}phenyl)azetidine-3-carboxamide], the negative logarithm of the IC50 (pIC50) is 9.41 at NAMPT and 6.92 in experiment [1].
The like results for `CC(C)(O)C(=O)N1CCC(c2ccc(NC(=O)C3CN(c4cccnc4C#N)C3)cc2)CC1` [Example 2, 1-(2-cyanopyridin-3-yl)-N-{4-[1-(2-hydroxy-2-methylpropanoyl)piperidin-4-yl]phenyl}azetidine-3-carboxamide] were, in that order, 7.70 and 7.65.
Turning to `O=C(Nc1ccc(OC2CCN(C(=O)CC3CCOCC3)CC2)cc1)C1CN(c2cccnc2C(F)(F)F)C1` [Example 3, N-(4-{[1-(tetrahydro-2H-pyran-4-ylacetyl)piperidin-4-yl]oxy}phenyl)-1-[2-(trifluoromethyl)pyridin-3-yl]azetidine-3-carboxamide], the results for the pIC50 (at NAMPT; in experiment [1]) were 7.72 and 6.45, respectively.
The corresponding values for `Cc1ncccc1N1CC(C(=O)Nc2ccc(OC3CCN(C(=O)CC4CCOCC4)CC3)cc2)C1` [Example 4, 1-(2-methylpyridin-3-yl)-N-(4-{[1-(tetrahydro-2H-pyran-4-ylacetyl)piperidin-4-yl]oxy}phenyl)azetidine-3-carboxamide] are 7.62 and 6.37.
`Cc1ccncc1N1CC(C(=O)Nc2ccc(OC3CCN(C(=O)CC4CCOCC4)CC3)cc2)C1` [Example 5, 1-(4-methylpyridin-3-yl)-N-(4-{[1-(tetrahydro-2H-pyran-4-ylacetyl)piperidin-4-yl]oxy}phenyl)azetidine-3-carboxamide]: the pIC50 on NAMPT is 7.99; in experiment [1] it was 6.97.
The corresponding values for `O=C(Nc1ccc(OC2CCN(C(=O)CC3CCOCC3)CC2)cc1)C1CN(c2cnccc2F)C1` [Example 6, 1-(4-fluoropyridin-3-yl)-N-(4-{[1-(tetrahydro-2H-pyran-4-ylacetyl)piperidin-4-yl]oxy}phenyl)azetidine-3-carboxamide] are 8.63 and 6.26.
The like results for `O=C(Nc1ccc(OC2CCN(C(=O)CC3CCOCC3)CC2)cc1)C1CN(c2cnccc2C(F)(F)F)C1` [Example 7, N-(4-{[1-(tetrahydro-2H-pyran-4-ylacetyl)piperidin-4-yl]oxy}phenyl)-1-[4-(trifluoromethyl)pyridin-3-yl]azetidine-3-carboxamide] were, in that order, 7.07 and 6.98.
The corresponding values for `CC(C)(C)OC(=O)N1CCC(Oc2ccc(NC(=O)[C@H]3CCN(c4cccnc4)C3)cc2)CC1` [Example 8, tert-butyl 4-[4-({[(3S)-1-(pyridin-3-yl)pyrrolidin-3-yl]carbonyl}amino)phenoxy]piperidine-1-carboxylate] are 8.28 and 5.47.
In the case of `CC(C)(C)OC(=O)N1CCC(Oc2ccc(NC(=O)[C@@H]3CCN(c4cccnc4)C3)cc2)CC1` [Example 9, tert-butyl 4-[4-({[(3R)-1-(pyridin-3-yl)pyrrolidin-3-yl]carbonyl}amino)phenoxy]piperidine-1-carboxylate], the pIC50 on NAMPT is 7.76; in experiment [1], 5.06.
The like results for `O=C(Nc1ccc(C2CCN(C(=O)[C@@H]3CCCO3)CC2)cc1)C1CN(c2cccnc2)C1` [Example 10, 1-(pyridin-3-yl)-N-(4-{1-[(2S)-tetrahydrofuran-2-ylcarbonyl]piperidin-4-yl}phenyl)azetidine-3-carboxamide] were, in that order, 9.29 and 7.46.
The like results for `O=C(Nc1ccc(OC2CCN(C(=O)CC3CCOCC3)CC2)cc1)[C@H]1CCN(c2cccnc2)C1` [Example 11, (3S)-1-(pyridin-3-yl)-N-(4-{[1-(tetrahydro-2H-pyran-4-ylacetyl)piperidin-4-yl]oxy}phenyl)pyrrolidine-3-carboxamide] were, in that order, 8.71 and 5.63.
The like results for `CC(C)C(=O)N1CCC(Oc2ccc(NC(=O)[C@H]3CCN(c4cccnc4)C3)cc2)CC1` [Example 12, (3S)-N-(4-{[1-(2-methylpropanoyl)piperidin-4-yl]oxy}phenyl)-1-(pyridin-3-yl)pyrrolidine-3-carboxamide] were, in that order, 8.69 and 5.85.
In the case of `O=C(Nc1ccc(OC2CCN(C(=O)[C@@H]3CCCO3)CC2)cc1)[C@H]1CCN(c2cccnc2)C1` [Example 13, (3S)-1-(pyridin-3-yl)-N-[4-({1-[(2S)-tetrahydrofuran-2-ylcarbonyl]piperidin-4-yl}oxy)phenyl]pyrrolidine-3-carboxamide], the pIC50 on NAMPT was 8.54; in experiment [1], 6.07.
Consider `O=C(Nc1ccc(OC2CCN(C(=O)[C@H]3CCCO3)CC2)cc1)[C@H]1CCN(c2cccnc2)C1` [Example 14, (3S)-1-(pyridin-3-yl)-N-[4-({1-[(2R)-tetrahydrofuran-2-ylcarbonyl]piperidin-4-yl}oxy)phenyl]pyrrolidine-3-carboxamide], for which the negative logarithm of the IC50 (pIC50) at NAMPT was 8.51; in experiment [1], 5.42.
The corresponding values for `O=C(Nc1ccc(OC2CCN(C(=O)C3CCOC3)CC2)cc1)[C@H]1CCN(c2cccnc2)C1` (stereo partly drawn) [Example 15, (3S)-1-(pyridin-3-yl)-N-(4-{[1-(tetrahydrofuran-3-ylcarbonyl)piperidin-4-yl]oxy}phenyl)pyrrolidine-3-carboxamide] are 8.60 and 5.78.
The corresponding values for `O=C(Nc1ccc(OC2CCN(C(=O)CC3CC3)CC2)cc1)[C@H]1CCN(c2cccnc2)C1` [Example 16, (3S)-N-(4-{[1-(cyclopropylacetyl)piperidin-4-yl]oxy}phenyl)-1-(pyridin-3-yl)pyrrolidine-3-carboxamide] are 8.38 and 5.61.
The like results for `CC(C)(O)C(=O)N1CCC(Oc2ccc(NC(=O)[C@H]3CCN(c4cccnc4)C3)cc2)CC1` [Example 17, (3S)-N-(4-{[1-(2-hydroxy-2-methylpropanoyl)piperidin-4-yl]oxy}phenyl)-1-(pyridin-3-yl)pyrrolidine-3-carboxamide] were, in that order, 8.63 and 5.45.
With `O=C(Nc1ccc(OC2CCN(C(=O)CC(F)(F)F)CC2)cc1)[C@H]1CCN(c2cccnc2)C1` [Example 18, (3S)-1-(pyridin-3-yl)-N-(4-{[1-(3,3,3-trifluoropropanoyl)piperidin-4-yl]oxy}phenyl)pyrrolidine-3-carboxamide], the pIC50 at NAMPT was 8.27; in experiment [1], 5.56.
The like results for `CC[C@H](C)C(=O)N1CCC(Oc2ccc(NC(=O)[C@H]3CCN(c4cccnc4)C3)cc2)CC1` [Example 19, (3S)-N-[4-({1-[(2S)-2-methylbutanoyl]piperidin-4-yl}oxy)phenyl]-1-(pyridin-3-yl)pyrrolidine-3-carboxamide] were, in that order, 9.26 and 5.93.
The like results for `CC(C)(O)C(=O)N1CCC(c2ccc(NC(=O)C3CN(c4cccnc4)C3)cc2)CC1` [Example 20, N-{4-[1-(2-hydroxy-2-methylpropanoyl)piperidin-4-yl]phenyl}-1-(pyridin-3-yl)azetidine-3-carboxamide] were, in that order, 9.53 and 8.17.
With `O=C(NC1CN(c2cccnc2)C1)c1ccc(OC2CCN(C(=O)CC3CCOCC3)CC2)cc1` [Example 21, N-[1-(pyridin-3-yl)azetidin-3-yl]-4-{[1-(tetrahydro-2H-pyran-4-ylacetyl)piperidin-4-yl]oxy}benzamide], the pIC50 on NAMPT is 9.29; in experiment [1] it was 5.13.
The corresponding values for `CC[C@H](C)C(=O)N1CCC(c2ccc(NC(=O)C3CN(c4cccnc4)C3)cc2)CC1` [Example 22, N-(4-{1-[(2S)-2-methylbutanoyl]piperidin-4-yl}phenyl)-1-(pyridin-3-yl)azetidine-3-carboxamide] are 9.77 and 7.93.
In the case of `CC[C@H](C)C(=O)N1CCC(Oc2ccc(C(=O)NC3CN(c4cccnc4)C3)cc2)CC1` [Example 23, 4-({1-[(2S)-2-methylbutanoyl]piperidin-4-yl}oxy)-N-[1-(pyridin-3-yl)azetidin-3-yl]benzamide], the figures for the pIC50 (at NAMPT; in experiment [1]) were 9.21 and 5.71, respectively.
As to `CC(C)(C)OC(=O)N1CCC(Oc2ccc(C(=O)N[C@H]3CCN(c4cccnc4)C3)cc2)CC1` [Example 27, tert-butyl 4-(4-{[(3S)-1-(pyridin-3-yl)pyrrolidin-3-yl]carbamoyl}phenoxy)piperidine-1-carboxylate], the pIC50 at NAMPT is 7.95.
On the same count and under the same terms, in the case of `CC(C)(C)OC(=O)N1CCC(Oc2ccc(C(=O)N[C@@H]3CCN(c4cccnc4)C3)cc2)CC1` [Example 28, tert-butyl 4-(4-{[(3R)-1-(pyridin-3-yl)pyrrolidin-3-yl]carbamoyl}phenoxy)piperidine-1-carboxylate] it was 8.60.

Source of the values: US8975398B2, “NAMPT inhibitors” (AbbVie Inc., priority 2012, dated 2015).
